Experiments:
Format in all cases: cell-based
A2780adr cell line = assay: Cell viability by ATP dosage (ATPlite), 72 h continuous exposure, A2780adr; conditions: A2780adr cells, continuous exposure 72 hours, viable cells by ATP dosage
Method: (§1) Pharmacological experimentation was carried out on the compounds of the invention at a 0.1% concentration in dimethylsulfoxide. A2780wt, A2780cis, A2780adr and A2780tax cell lines were used. Cells were plated on 96 well flat bottom plates (Viewplates, Packard). After 24-hours, the culture medium was replaced and, after washing, media containing the tested compounds were added. A dose-response logarithmic curve was established in quadruplicate for each plate, starting from […]. Each assay was effected in duplicate three times. After 72 hour-culture in the presence of the tested compounds, the cells were collected and the number of viable cells was evaluated by ATP dosage, using the ATPlite kit (Packard, Meridien, Mo., USA) and the Topcount (Packard) automated luminometer. For each drug/cell line, the dose-response curve was plotted and the IC50 values were calculated from the concentration-effect curve obtained in three tests with the sigmoid-Emax model using non-linear regression, weighted by the reciprocal of the square of the predicted effect.

A2780wt cell line = assay: Cell viability by ATP dosage (ATPlite), 72 h continuous exposure, A2780wt; conditions: A2780wt cells, continuous exposure 72 hours, viable cells by ATP dosage
Method: as §1

A2780cis cell line = assay: Cell viability by ATP dosage (ATPlite), 72 h continuous exposure, A2780cis; conditions: A2780cis cells, continuous exposure 72 hours, viable cells by ATP dosage
Method: as §1

A2780tax cell line = assay: Cell viability by ATP dosage (ATPlite), 72 h continuous exposure, A2780tax; conditions: A2780tax cells, continuous exposure 72 hours, viable cells by ATP dosage
Method: as §1

For `CC(=O)O[C@H]1C(=O)[C@@]2(C)[C@H]([C@H](OC(=O)c3ccccc3)[C@]34OC(=O)O[C@H]3[C@H](OC(=O)[C@](C)(O)[C@@H](NC(=O)OC(C)(C)C)c3ccccc3)C(C)=C1C4(C)C)[C@]1(OC(C)=O)CO[C@@H]1C[C@@H]2O` [Es. 2, (2′R,3′S)-13-(N-Boc-2-methyl-3-phenylisoserinoyl)-14β-hydroxybaccatin III 1,14-carbonate], the IC50 (A2780adr cell line) was 52.9 ± 16.2 nM, the IC50 (A2780wt cell line) was 2.53 ± 1.47 nM and the IC50 (A2780cis cell line) was 1.7 ± 0.4 nM. For the same molecule, the IC50 (A2780tax cell line) was 299 ± 77 nM.

In the case of `CC(=O)OC1C(=O)C2(C)C(O)CC3OCC3(OC(C)=O)C2C(OC(=O)c2ccccc2)C2(O)CC(OC(=O)C(C)(O)C(NC(=O)c3ccccc3)c3ccco3)C(C)=C1C2(C)C` (stereo not drawn) [Es. 1, (2′R,3′R)-3′-dephenyl-3′-(2-furyl)-2′-methyl-paclitaxel], the IC50 (A2780adr cell line) is reported as 61.4 ± 3.9 nM, the IC50 (A2780wt cell line) is reported as 3.1 ± 0.2 nM and the IC50 (A2780cis cell line) is reported as 2.9 ± 0.1 nM. It also gave an IC50 (A2780tax cell line) of 420 ± 93 nM.

Work on `CC(=O)O[C@H]1C(=O)[C@@]2(C)[C@H]([C@H](OC(=O)c3ccccc3)[C@]34OC(=O)O[C@H]3[C@H](OC(=O)[C@](C)(O)[C@@H](NC(=O)OC(C)(C)C)c3ccco3)C(C)=C1C4(C)C)[C@]1(OC(C)=O)CO[C@@H]1C[C@@H]2O` [Es. 4, (2′R,3′R)-13-[N-Boc-2-methyl-3-(2-furanyl)isoserinoyl]-14β-hydroxybaccatin III 1,14-carbonate] yielded an IC50 (A2780adr cell line) of 27.1 ± 10.1 nM, an IC50 (A2780wt cell line) of 5.9 ± 0.7 nM and an IC50 (A2780cis cell line) of 2.5 ± 0.3 nM. The IC50 (A2780tax cell line) was 30.9 ± 3.7 nM.

`CC(=O)O[C@H]1C(=O)[C@@]2(C)[C@H]([C@H](OC(=O)c3ccccc3)[C@]34OC(=O)O[C@H]3[C@H](OC(=O)[C@](C)(O)[C@@H](NC(=O)OC(C)(C)C)C(F)(F)F)C(C)=C1C4(C)C)[C@]1(OC(C)=O)CO[C@@H]1C[C@@H]2O` [Es. 5, (2′R,3′R)-13-[N-Boc-2-methyl-3-trifluoromethylisoserinoyl]-14β-hydroxybaccatin III 1,14-carbonate] showed an IC50 (A2780adr cell line) of 79.3 ± 19.9 nM, an IC50 (A2780wt cell line) of 4.64 ± 2.58 nM and an IC50 (A2780cis cell line) of 2.8 ± 0.6 nM. It also gave an IC50 (A2780tax cell line) of 285 ± 60 nM.

`CC(=O)O[C@H]1C(=O)[C@@]2(C)[C@H]([C@H](OC(=O)c3ccccc3)[C@]3(O)C[C@H](OC(=O)[C@](C)(O)[C@@H](NC(=O)OC(C)(C)C)c4ccco4)C(C)=C1C3(C)C)[C@]1(OC(C)=O)CO[C@@H]1C[C@@H]2O` [Es. 3, (2′R,3′R)-13-[N-Boc-2-methyl-3-(2-furanyl)-isoserinoyl]-baccatin III] gave an IC50 (A2780adr cell line) of 41.3 ± 7.4 nM, an IC50 (A2780wt cell line) of 2.9 ± 0.1 nM and an IC50 (A2780cis cell line) of 3.3 ± 0.2 nM. It also gave an IC50 (A2780tax cell line) of 312 ± 61 nM.

Work on “(2′R,3′R)-13-[N-Boc-2-methyl-3-(2-thienyl)isoserinoyl]-14β-hydroxybaccatin III 1,14-carbonate [Es. 6]” yielded an IC50 (A2780adr cell line) of 93.2 ± 20.4 nM, an IC50 (A2780wt cell line) of 3.7 ± 0.4 nM and an IC50 (A2780cis cell line) of 2.9 ± 0.2 nM. The IC50 (A2780tax cell line) was 160 ± 32 nM.

Source: US7153884B2, “C-2′ methylated derivatives of paclitaxel for use as antitumour agents” (Indena S.p.A., priority 2001, dated 2006)
